Laboratory results: patent US8207211B2, “Photosensitizers for targeted photodynamic therapy” (The General Hospital Corporation, priority 2005, dated 2012)

Tests used:
[1] = system: L929 murine fibroblast line; assay: Mammalian cell toxicity, MTT viability assay after illumination; format: cell-based, mouse; details: 10 μM, 10 min; for toxicity to L929 mammalian cells at fluences used for PDI of pathogens: white light up to 50 J/cm^2
Source text: Experiments to test the effect of functionalized fullerenes on mammalian cells can be performed in a suitable mammalian cell line. One such cell line is the L929 murine fibroblast line (ATCC #CCL1), a spontaneously transformed immortalized cell line established from the normal subcutaneous areolar and adipose tissue of a male C3H/An mouse (Earle, W. R., Schilling, E. L., Stark, T. H., Straus, N. P., Brown, M. F., and Shelton, E. (1943). Production of malignancy in vitro. IV. The mouse fibroblast cultures and changes seen in the living cells. J. Natl. Cancer Inst. 4, 165-212). In a suitable assay, these cells were cultured in Dulbecco's modified Eagle's medium (Sigma) at 37° C. in a humidified atmosphere containing 5% CO2. The medium is preferably modified by using 4 mM L-glutamine (containing 1.5 g/l sodium bicarbonate and 4.5 g/l glucose), 10% fetal bovine serum (FBS), 100 U/ml penicillin, and […] streptomycin. Cells were plated in 96-well cell culture plates, at a density of about 300 cells/well, and are allowed to attach for 24 hr.
Fullerenes and other PS, e.g., TBO, were added at a concentration of about 10 μM in 200 μl complete medium per well. After 10 min, fresh medium is added, and the cultures were illuminated with white light (for fullerenes) or with red light (for TBO). At the completion of the illumination period, cells were returned to the incubator for 24 hr. Cell viability can be determined, for example, by using the MTT-microculture tetrazolium assay, a method of assessing cellular response to PDT (Merlin, J. L., Azzi, S., Lignon, D., Ramacci, C., Zeghari, N., and Guillemin, F. (1992). MTT assays allow quick and reliable measurement of the response of human tumour cells to photodynamic therapy. Eur. J. Cancer 28A, 1452-1458. This assay involves the reduction of a colorless substrate, i.e., 3-[4,5-Dimethylthiazol-2-yl]-diphenyltetrazolium bromide (Sigma, St. Louis, […].) to an insoluble dark-blue formazan product which is formed in proportion to the amount of succinate dehydrogenase activity in the mitochondria of living cells. After incubation with MTT for periods ranging from 4 to 8 hr, the medium was aspirated from each well, and […] DMSO is added. The absorbance at 570 nm was read by a microplate reader, e.g., a Spectra Max™ 340 PC (Molecular Devices, Sunnyvale, Calif.). The fraction of cells surviving was calculated by dividing the mean absorbances of formazan produced from PDT-treated cells by the mean absorbances from dark controls incubated with PS and kept at room temperature for periods of time equal to the irradiation times.

[2] = system: S. aureus; assay: Photodynamic inactivation (PDI), CFU survival, white light (red light for TBO); format: cell-based, Staphylococcus aureus; details: for PDT activity against S. aureus: 10 min, white light up to 50 J/cm^2
[3] = system: E. coli; assay: as above; format: cell-based, Escherichia coli; details: 10 μM; for change of E. coli killing in the presence of serum versus no serum: white light; for PDT activity against E. coli: white light up to 50 J/cm^2
Procedure: (§1) Staphylococcus aureus (ATCC #35556), Escherichia coli (ATCC #25922), and Pseudomonas aeruginosa (ATCC #BAA-47; PAO1) were cultured in brain-heart infusion (BHI) broth (Difco, BD Diagnosttic Systems, Sparks, Md.) at 37° C. in aerobic conditions in a shaker at 150 rpm. Candida albicans (ATCC #18804) is grown in YM broth (Difco). Exponential cultures obtained by reculturing stationary overnight precultures were used for experiments.
(§2) E. coli, P. aeruginosa, and S. aureus are grown in fresh medium for approximately 1 hr to a density of about 10^8 cells/ml; the OD values at 650 nm are 0.6, 0.8, and 0.8, respectively. C. albicans is grown for approximately 4 hr to an approximate density of 10^8 cells/ml, corresponding to an OD of 6 at 650 nm (measured at 10-fold dilution). Cells were used for experiments in the mid-log growth phase.
(§3) A noncoherent lamp with filtered liquid light guides, e.g., a LumaCare™ LC122 lamp (MBG Technologies, Inc., Newport Beach, Calif.) was used to provide illumination of PS. More specifically, for illumination of fullerenes, a broad-band white light band pass filter (400-700 nm) was used, whereas for TBO, a band pass filter at 620-650 nm was used. The lamp was adjusted to give a uniform spot of about 4 cm diameter with an irradiance of 200 mW/cm^2, as measured with a power meter, e.g., a model DMM 199 meter with 201 Standard head (Coherent, Santa Clara, Calif.).
(§4) Typically, derivatized fullerenes prepared as described above are dissolved in DMSO to provide stock solutions having final concentrations of about 5 mM. […] All stock solutions were stored in the dark at room temperature.
(§5) In some experiments, for example in studies described in Examples below, suspensions of S. aureus cells (10^8 per ml) were incubated with derivatized fullerenes such as NI-1-3 and CI1-3 at a concentration of 100 μM in PBS at room temperature for 10 min. In other experiments, the bacterial suspension was centrifuged (4000×g for 10 min) after incubation and resuspended in fresh PBS before illumination; the latter procedure was referred to herein as a “wash.” E. coli, P. aeruginosa, and C. albicans were used at concentrations of about 10^8 cells per ml.
(§6) Illumination was carried out from above on microbial cell suspensions in wells of a 24-well plate. Aliquots were removed at times corresponding to the delivery of calculated fluences of light, and were serially diluted in PBS and streaked on square BHI or YM agar plates according to the method of Jett et al. (Jett, B. D., Hatter, K. L., Huycke, M. M., and Gilmore, M. S. (1997). Simplified agar plate method for quantifying viable bacteria. Biotechniques 23, 648-650). Survival fractions were calculated with reference to cells incubated in PBS alone. Values on killing curves at 0 J/cm^2 represent the dark toxicity of the fullerenes or other PS tested. Control cells were treated with light and no PS and also analyzed for viability.

[4] = Octanol-water distribution coefficient; format: physicochemical; details: 1-octanol/DI water, absorbance at 330 nm
Procedure: Each compound was dissolved in a minimum amount of DMSO: CI1 (0.9 mg in 200 μl), CI2 (5.3 mg in 200 μl), CI3 (5.4 mg in 200 μl). Ten ml of DI water and 10 ml of 1-octanol were added in each compound and vigorously shaken for 2 min. and the vials of the compounds were settled down overnight. The phases were separated and UV-spectra of each phase were analyzed. Distribution coefficient of each compound was determined using absorbance of aqueous phases and organic phases at 330 nm.

[5] = system: C. albicans; assay: Photodynamic inactivation (PDI), CFU survival, white light (red light for TBO); format: cell-based, Candida albicans; details: 10 μM; for PDT activity against C. albicans: white light up to 50 J/cm^2
Procedure: as §1, §2, §3, §4, §5, §6

[6] = system: P. aeruginosa; assay: as above; format: cell-based, Pseudomonas aeruginosa; details: 10 μM; for PDT activity against P. aeruginosa: white light up to 50 J/cm^2
Procedure: as §1, §2, §3, §4, §5, §6

[7] = system: S. aureus; assay: as above; format: cell-based, Staphylococcus aureus
Procedure: as §1, §2
as §3, with “More specifically, for illumination of fullerenes, a broad-band white light band pass filter (400-700 nm) was used, whereas for TBO, a band pass filter at 620-650 nm was used.” left out, “Calif.). […]” for “Calif.).”
Illumination was carried out from above on microbial cell suspensions in wells of a 24-well plate. […] Survival fractions were calculated with reference to cells incubated in PBS alone. […]

[8] = Solubility in DMSO stock solution; format: physicochemical; details: lower stock concentration used than for the other fullerenes
Procedure: as §4
Six fullerene derivatives (NI1-3 and CI1-3) were evaluated. […] Concentration of fullerene derivatives used in the experiments varied between 1 and 100 μM.

[9] = 10 min incubation, up to 16 J/cm2 of red light
[10] = same fluence as for the fullerenes, presence or absence of serum

With `C[N+]1(C)Cc2c(c3c4ccc5c6c7c(c8c9ccc%10c%11c%12c%13c(c2c2c3c3c4c5c4c6c8c5c9c%10c%12c6c(c%132)c3c4c56)C2C[N+](C)(C)CC%112)C[N+](C)(C)C7)C1` (stereo not drawn) [CI3] the “toxicity to L929 mammalian cells at fluences used for PDI of pathogens” value [1] was “not killed”, the “PDT activity against S. aureus” value ([2]; 1 μM) was “effectively killed” and the “light sufficient to kill 4-5 logs of S. aureus” value ([2]; 1 μM, with a wash, white light) was 1 J/cm^2. For the same molecule, the “change of E. coli killing in the presence of serum versus no serum” value ([3]; 10 min, 10% FBS, with a wash) was “about 1 log”, the “PDT activity against E. coli” value ([3]; 10 min) was “effectively killed” and the “killing of E. coli” value ([3]; with a wash, 2 J/cm^2 white light) was 6 logs. For the same molecule, the “Kow (octanol-water partition constant)” value [4] was 0.37, the LogKow [4] was −0.43 and the “PDT activity against C. albicans” value ([5]; 10 min) was “effectively killed”. For the same molecule, the “relative effectiveness in killing C. albicans” value ([5]; 10 min, with a wash, white light) was “slightly more effective than CI2” and the “PDT activity against P. aeruginosa” value ([6]; 10 min) was “effectively killed”.

With `Cc1cc2nc3ccc(N(C)C)cc3[s+]c2cc1N.[Cl-]` [TBO, toluidine blue O, reference compound] the “dark toxicity toward L929 cells (killing)” value ([1]; 10% FBS, with a wash) was “little dark toxicity”, the “fluence at which the limit of the viability assay was reached (L929)” value ([1]; 10% FBS, with a wash, red light) was 80 J/cm^2 and the “additional phototoxicity toward L929 cells” value ([1]; 10% FBS, with a wash, white or red light up to 120 J/cm^2) was “pronounced light-dependent toxicity”. The “killing of S. aureus” value ([2]; 1 μM, 10 min incubation, up to 16 J/cm2 of red light) was at most 90%, the “killing of S. aureus” value ([2]; 1 μM, same fluence as for the fullerenes, presence or absence of serum) was “less than 1 log” and the “PDI of E. coli in the presence of serum” value ([3]; 10 min, 10% FBS, with a wash, red light) was “almost ineffective”. The “killing of E. coli” value [3, 9] was at most 90%, the “killing of C. albicans” value [5, 9] was at most 90% and the “killing of C. albicans” value [5, 10] was “less than 1 log”. The “killing of P. aeruginosa” value [6, 9] was at most 90% and the “killing of P. aeruginosa” value [6, 10] was “less than 1 log”.

For `C[N+]1(C)CC2c3c4ccc5c6ccc7c8ccc9c%10ccc%11c(c%12c3c3c4c5c4c6c7c5c8c9c6c%10c%11c%12c7c3c4c5c67)C2C1` (stereo not drawn) [CI1], the “toxicity to L929 mammalian cells at fluences used for PDI of pathogens” value [1] was “not killed”, the “PDT activity against S. aureus” value ([2]; 1 μM) was “effectively killed” and the “dark toxicity to S. aureus” value ([2]; 10 and 1 μM, with a wash) was “nonexistent”. The “dark toxicity to S. aureus (killing)” value ([7]; 100 μM, 10 min, 0 J/cm^2) was 99%, the “PDI of S. aureus” value ([7]; 100, 50, 25, 10 and 1 μM, with a wash, white light 4-8 J/cm2) was “fluence-dependent loss of viability” and the “solubility in DMSO (stock solution)” value [8] was “poorly soluble”. The “change of E. coli killing in the presence of serum versus no serum” value ([3]; 10 min, 10% FBS, with a wash) was “unchanged”, the “PDT activity against E. coli” value ([3]; 10 min) was “effectively killed” and the “killing of E. coli” value ([3]; with a wash, 8 J/cm^2 white light) was 3 logs. For the same molecule, the “Kow (octanol-water partition constant)” value [4] was 140.80, the LogKow [4] was 2.15 and the “PDT activity against C. albicans” value ([5]; 10 min) was “effectively killed”. The “PDT activity against P. aeruginosa” value ([6]; 10 min) was “effectively killed” and the “killing of P. aeruginosa” value ([6]; 10 min, with a wash, white light up to 16 J/cm^2) was 2 logs.
